In PMC7316994, “In Vitro Pharmacological Profile of a New Small Molecule Bradykinin B2 Receptor Antagonist” (Frontiers in Pharmacology, 2020):

Assays:
Urotensin UT = biological target: T1, Urotensin UT (Homo sapiens, UniProt Q9UKP6); assay: radioligand binding (Table S2); conditions: [125I] Urotensin-II, Human recombinant CHO cells
T1 construct: host or cells: CHO cells

Adrenergic β2 = Adrenergic β2 (Homo sapiens, UniProt P07550); assay: radioligand binding (Table S2); conditions: read-out: % Inhibition @ 10 µM
PDE4D2 = PDE4D2 (Homo sapiens, UniProt Q08499); assay: enzyme assay (Table S2); format: biochemical; conditions: [3H]cAMP + cAMP (0.5 µM), Scintillation counting
[1] = biological target: Gamma-aminobutyric acid GABAB1A (Homo sapiens, UniProt Q9UBS5); assay: radioligand binding (Table S2); conditions: read-out: % Inhibition @ 10 µM
Somatostatin sst2 = Somatostatin sst2 (Homo sapiens, UniProt P30874); assay: radioligand binding (Table S2); conditions: [125I] Tyr11-Somatostatin 14, Human recombinant CHO-K1 cells
5-HT2A receptor = biological target: T2, 5-HT2A receptor (Homo sapiens, UniProt P28223); assay: umbilical vein, serotonin-induced contraction; conditions: Compound 2 10 μM; Compound 3 1 μM
T2 construct: other endogenously expressed receptors in the human umbilical vein; from tissue; host or cells: human umbilical vein rings
Text: The local ethics committee (CHU de Québec-Université Laval) had approved the project (File no. 2017-3720). Umbilical cords were obtained following elective caesarean sections; all problematic deliveries are excluded. Informed consent was obtained from the mothers. The cords were transported from the maternity ward to the laboratory in sterile Hank's balanced salt solution containing penicillin and streptomycin. Segments of umbilical veins were dissected carefully from the cords and a metal rod was inserted in the lumen. Excess connective tissue was excised and rings (2–3 mm wide) were cut. Rings of umbilical veins were suspended in 5-mL organ chambers containing oxygenated (95% O2, 5% CO2) and warmed (37°C) Krebs' solution between a metal hook and a thread loop. This solution had the following composition: NaCl 117.5 mM, KCl 4.7 mM, KH2PO4 1.2 mM, MgSO4 1.18 mM, CaCI2 2.5 mM, NaHCO3 25.0 mM, and D-glucose 5.5 mM. A baseline of one gram-weight was applied to these preparations. Changes of tension were recorded by using isometric transducers (model 52-9545, Harvard Bioscience, South Natick MA). Eight tissue baths are operated in parallel.
For this purpose, contractile responses to serotonin, acting on the 5-HT2A receptor, and U-46619, acting at the prostanoid TP receptor, were measured ([Rogines-Velo et al., 2002]; [Daray et al., 2003]).

[2] = biological target: T3, Opioid nociceptin NOP (ORL1) (Homo sapiens, UniProt P41146); assay: radioligand binding (Table S2); conditions: [3H] Nociceptin, Human recombinant HEK-293 cells
T3 construct: host or cells: HEK-293 cells

[3] = tested on: Potassium channel (Ca activated) SKCa channel; assay: radioligand binding (Table S2); conditions: [125I] Apamin, Rat cerebral cortex
Bombesin BB1 = biological target: T4, Bombesin BB1 (Homo sapiens, UniProt P28336); assay: radioligand binding (Table S2); conditions: [125I] [Tyr4]-bombesin, Human recombinant CHO cells
T4 construct: host or cells: CHO cells

Neurokinin NK3 = biological target: T5, Neurokinin NK3 (Homo sapiens, UniProt P29371); assay: radioligand binding (Table S2); conditions: [3H] SR 142801, Human recombinant CHO cells
T5 construct: host or cells: CHO cells
T5 sequence (P29371 1-465): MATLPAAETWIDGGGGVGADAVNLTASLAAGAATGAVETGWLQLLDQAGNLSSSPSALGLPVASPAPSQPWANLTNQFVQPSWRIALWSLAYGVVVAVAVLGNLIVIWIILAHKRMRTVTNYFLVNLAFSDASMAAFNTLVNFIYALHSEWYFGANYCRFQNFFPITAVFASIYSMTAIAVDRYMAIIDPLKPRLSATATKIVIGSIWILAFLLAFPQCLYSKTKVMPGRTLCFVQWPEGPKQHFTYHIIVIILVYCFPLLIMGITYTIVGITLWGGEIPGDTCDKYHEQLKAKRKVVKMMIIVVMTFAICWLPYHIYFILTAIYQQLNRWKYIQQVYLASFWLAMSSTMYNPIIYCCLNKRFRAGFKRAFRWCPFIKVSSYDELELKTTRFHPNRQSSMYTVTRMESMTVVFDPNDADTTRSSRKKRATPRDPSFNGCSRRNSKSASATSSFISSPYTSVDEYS

Oxytocin = biological target: T6, Oxytocin (Homo sapiens, UniProt P30559); assay: radioligand binding (Table S2); conditions: [3H] Oxytocin, Human recombinant Chem-1 cells
T6 construct: host or cells: Chem-1 cells

[4] = tested on: Potassium channel voltage gated KV channel; format: binding; conditions: [125I] α-dendrotoxin, Rat cerebral cortex
Acetylcholinesterase = biological target: T7, Acetylcholinesterase (Homo sapiens, UniProt P22303); assay: enzyme assay (Table S2); format: biochemical; conditions: Acetylthiocholine (400 µM), Photometry
T7 construct: Eurofins (assay provider); host or cells: HEK-293 cells

Dopamine D2S = biological target: T8, Dopamine D2S (Homo sapiens, UniProt P14416); assay: radioligand binding (Table S2); conditions: [3H] 7-OH-DPAT, Human recombinant HEK-293 cells
T8 construct: host or cells: HEK-293 cells

dog B2 receptor = biological target: T9, dog B2 receptor (Canis lupus familiaris, UniProt Q9BDQ4); assay: Ca^2+ mobilization assay, HEK293T cells; format: cell-based
T9 sequence (Q9BDQ4 1-392): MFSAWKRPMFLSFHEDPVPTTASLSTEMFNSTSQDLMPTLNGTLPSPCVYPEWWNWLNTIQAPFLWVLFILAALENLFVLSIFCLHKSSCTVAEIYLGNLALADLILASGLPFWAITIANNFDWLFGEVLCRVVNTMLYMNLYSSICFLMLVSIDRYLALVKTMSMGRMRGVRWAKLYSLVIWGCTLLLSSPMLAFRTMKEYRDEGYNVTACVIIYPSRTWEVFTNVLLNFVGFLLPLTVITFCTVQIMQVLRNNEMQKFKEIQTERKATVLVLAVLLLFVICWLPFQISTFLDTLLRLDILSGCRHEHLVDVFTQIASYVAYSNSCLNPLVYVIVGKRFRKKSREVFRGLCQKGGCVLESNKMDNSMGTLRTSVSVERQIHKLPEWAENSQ

[5] = tested on: panel of G protein-coupled receptors (GPCRs), ion channels, enzymes and transporters
Muscarinic M4 = Muscarinic M4 (Homo sapiens, UniProt P08173); assay: radioligand binding (Table S2); conditions: read-out: % Inhibition @ 10 µM
[6] = biological target: T10, Nicotinic N neuronal α4β2 (Homo sapiens, UniProt P17787+P43681); assay: radioligand binding (Table S2); conditions: [3H] Cytisine, Human recombinant SH-SY5Y cells
T10 construct: host or cells: SH-SY5Y cells
T10 sequence (P43681 29-627 limits assumed): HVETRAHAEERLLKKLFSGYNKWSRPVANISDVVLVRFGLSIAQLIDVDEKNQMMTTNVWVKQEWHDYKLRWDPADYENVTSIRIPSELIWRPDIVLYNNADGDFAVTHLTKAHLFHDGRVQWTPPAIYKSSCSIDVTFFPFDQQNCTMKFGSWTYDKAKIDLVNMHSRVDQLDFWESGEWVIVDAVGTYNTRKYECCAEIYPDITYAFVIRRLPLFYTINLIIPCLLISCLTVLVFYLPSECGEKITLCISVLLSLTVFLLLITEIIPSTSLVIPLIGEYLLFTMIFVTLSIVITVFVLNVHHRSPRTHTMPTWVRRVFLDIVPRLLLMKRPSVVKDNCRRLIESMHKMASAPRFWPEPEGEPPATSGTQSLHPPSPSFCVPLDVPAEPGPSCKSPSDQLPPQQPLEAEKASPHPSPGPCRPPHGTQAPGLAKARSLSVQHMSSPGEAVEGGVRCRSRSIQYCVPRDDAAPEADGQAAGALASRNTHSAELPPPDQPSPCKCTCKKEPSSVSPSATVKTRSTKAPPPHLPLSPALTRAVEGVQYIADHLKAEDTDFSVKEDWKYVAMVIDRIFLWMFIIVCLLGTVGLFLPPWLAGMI
T10 sequence (P17787 26-502): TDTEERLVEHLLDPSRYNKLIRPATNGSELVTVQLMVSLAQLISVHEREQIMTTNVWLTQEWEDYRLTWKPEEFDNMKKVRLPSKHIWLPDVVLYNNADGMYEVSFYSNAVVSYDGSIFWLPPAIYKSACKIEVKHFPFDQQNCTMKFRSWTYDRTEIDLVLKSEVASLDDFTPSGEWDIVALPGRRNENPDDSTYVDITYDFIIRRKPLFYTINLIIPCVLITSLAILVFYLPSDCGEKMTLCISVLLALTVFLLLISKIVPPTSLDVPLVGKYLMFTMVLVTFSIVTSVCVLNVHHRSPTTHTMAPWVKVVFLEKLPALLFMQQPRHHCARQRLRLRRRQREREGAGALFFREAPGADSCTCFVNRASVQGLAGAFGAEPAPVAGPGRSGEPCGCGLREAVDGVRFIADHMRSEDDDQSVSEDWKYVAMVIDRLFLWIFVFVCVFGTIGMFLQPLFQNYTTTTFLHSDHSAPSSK

Somatostatin sst2, sequence (P30874 whole entry): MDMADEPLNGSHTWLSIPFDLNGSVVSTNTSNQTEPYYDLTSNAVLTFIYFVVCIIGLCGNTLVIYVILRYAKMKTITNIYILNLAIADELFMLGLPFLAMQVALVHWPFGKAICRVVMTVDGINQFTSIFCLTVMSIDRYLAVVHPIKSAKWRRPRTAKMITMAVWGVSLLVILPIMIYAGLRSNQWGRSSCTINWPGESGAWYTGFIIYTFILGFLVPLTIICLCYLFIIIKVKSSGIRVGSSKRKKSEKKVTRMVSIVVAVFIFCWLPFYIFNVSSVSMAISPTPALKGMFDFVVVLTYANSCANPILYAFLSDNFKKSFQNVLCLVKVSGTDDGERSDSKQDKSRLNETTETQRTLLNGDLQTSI
T8 sequence (P14416 1-414 isoform P14416-2): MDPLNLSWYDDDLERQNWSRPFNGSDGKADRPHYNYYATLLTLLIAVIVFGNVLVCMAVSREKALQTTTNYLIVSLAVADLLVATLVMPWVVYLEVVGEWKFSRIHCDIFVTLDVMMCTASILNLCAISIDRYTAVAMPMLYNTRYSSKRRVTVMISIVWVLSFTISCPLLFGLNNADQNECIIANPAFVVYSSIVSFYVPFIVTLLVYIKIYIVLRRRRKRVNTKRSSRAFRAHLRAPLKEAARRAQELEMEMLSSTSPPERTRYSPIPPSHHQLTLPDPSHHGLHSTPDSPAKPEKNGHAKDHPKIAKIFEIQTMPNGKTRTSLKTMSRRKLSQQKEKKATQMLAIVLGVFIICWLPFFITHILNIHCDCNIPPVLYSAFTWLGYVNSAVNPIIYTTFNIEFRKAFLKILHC
T6 sequence (P30559 whole entry): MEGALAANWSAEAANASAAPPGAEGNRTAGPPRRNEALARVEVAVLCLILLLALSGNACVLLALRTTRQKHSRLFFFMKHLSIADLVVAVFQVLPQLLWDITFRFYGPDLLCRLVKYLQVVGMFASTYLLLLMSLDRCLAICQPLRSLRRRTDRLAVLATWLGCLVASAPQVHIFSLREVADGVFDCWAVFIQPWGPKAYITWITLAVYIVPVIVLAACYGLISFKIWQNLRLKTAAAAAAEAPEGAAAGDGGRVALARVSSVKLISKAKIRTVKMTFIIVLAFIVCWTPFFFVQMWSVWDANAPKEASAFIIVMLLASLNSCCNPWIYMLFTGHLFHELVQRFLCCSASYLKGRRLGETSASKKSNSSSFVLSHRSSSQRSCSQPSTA
T2 sequence (P28223 whole entry): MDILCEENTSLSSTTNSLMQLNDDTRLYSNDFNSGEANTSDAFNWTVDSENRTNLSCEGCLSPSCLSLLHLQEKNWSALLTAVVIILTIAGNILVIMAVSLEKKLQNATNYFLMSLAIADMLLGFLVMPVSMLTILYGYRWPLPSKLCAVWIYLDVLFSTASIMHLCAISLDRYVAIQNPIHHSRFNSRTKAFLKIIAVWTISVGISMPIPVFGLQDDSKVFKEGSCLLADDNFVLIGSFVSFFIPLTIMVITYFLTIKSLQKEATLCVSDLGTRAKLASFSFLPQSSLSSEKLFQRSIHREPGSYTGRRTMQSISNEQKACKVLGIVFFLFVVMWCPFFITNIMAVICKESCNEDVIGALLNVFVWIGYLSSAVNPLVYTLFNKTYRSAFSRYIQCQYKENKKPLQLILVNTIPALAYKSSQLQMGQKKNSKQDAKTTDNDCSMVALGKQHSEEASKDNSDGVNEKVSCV
PDE4D2, sequence (Q08499 303-809 limits assumed): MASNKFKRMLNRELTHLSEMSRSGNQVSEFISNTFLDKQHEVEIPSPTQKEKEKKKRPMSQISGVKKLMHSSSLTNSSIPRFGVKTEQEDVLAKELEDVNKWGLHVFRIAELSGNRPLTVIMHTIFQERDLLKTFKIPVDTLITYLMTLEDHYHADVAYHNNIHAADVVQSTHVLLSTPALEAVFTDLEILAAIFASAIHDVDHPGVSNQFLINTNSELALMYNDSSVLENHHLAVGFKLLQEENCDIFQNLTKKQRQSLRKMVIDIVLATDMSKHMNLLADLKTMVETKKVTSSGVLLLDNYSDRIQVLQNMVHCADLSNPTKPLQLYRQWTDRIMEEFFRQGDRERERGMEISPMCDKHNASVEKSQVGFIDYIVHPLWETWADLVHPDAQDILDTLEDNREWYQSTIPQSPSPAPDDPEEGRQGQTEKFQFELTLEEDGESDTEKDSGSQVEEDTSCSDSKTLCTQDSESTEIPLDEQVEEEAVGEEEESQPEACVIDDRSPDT
T7 sequence (P22303 32-614): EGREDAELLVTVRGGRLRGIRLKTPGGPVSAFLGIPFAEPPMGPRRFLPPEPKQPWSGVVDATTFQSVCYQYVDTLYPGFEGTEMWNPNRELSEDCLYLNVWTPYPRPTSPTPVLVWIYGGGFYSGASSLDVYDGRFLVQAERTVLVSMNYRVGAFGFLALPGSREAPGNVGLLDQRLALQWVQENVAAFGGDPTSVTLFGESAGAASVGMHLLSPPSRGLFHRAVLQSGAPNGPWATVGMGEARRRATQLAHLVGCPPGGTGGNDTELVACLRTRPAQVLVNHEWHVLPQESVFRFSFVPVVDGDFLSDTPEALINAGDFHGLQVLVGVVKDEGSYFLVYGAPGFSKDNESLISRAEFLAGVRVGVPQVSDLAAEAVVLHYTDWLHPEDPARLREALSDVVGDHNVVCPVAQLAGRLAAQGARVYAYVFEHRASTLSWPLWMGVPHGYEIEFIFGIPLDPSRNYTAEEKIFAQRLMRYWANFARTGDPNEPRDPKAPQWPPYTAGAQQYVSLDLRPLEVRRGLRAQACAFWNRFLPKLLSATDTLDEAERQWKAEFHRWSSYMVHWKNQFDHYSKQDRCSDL
Gamma-aminobutyric acid GABAB1A, sequence (Q9UBS5 15-961 limits assumed): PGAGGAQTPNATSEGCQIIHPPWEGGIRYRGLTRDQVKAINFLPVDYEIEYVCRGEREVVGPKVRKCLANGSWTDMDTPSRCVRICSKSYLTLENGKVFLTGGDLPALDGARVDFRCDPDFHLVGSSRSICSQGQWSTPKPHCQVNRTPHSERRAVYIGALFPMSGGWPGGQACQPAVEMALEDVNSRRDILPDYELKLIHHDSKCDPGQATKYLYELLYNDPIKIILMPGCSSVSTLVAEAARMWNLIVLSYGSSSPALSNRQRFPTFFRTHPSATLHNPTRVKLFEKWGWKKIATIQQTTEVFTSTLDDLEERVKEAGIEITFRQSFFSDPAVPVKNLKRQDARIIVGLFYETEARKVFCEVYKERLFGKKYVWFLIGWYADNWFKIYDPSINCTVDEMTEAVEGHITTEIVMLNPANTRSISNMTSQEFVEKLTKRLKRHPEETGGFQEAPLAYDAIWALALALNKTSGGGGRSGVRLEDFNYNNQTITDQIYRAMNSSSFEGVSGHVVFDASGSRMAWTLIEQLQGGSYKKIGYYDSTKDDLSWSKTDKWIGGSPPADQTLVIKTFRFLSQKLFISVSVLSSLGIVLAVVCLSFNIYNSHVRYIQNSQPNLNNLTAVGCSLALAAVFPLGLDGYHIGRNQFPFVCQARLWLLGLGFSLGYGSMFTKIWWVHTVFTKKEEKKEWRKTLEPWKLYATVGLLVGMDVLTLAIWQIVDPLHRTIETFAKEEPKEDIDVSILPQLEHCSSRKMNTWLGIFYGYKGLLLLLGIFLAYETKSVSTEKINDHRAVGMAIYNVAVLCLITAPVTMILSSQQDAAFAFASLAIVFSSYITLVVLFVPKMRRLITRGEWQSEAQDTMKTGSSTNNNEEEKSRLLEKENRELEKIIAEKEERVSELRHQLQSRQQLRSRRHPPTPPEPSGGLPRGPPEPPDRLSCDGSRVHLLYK

Cc1cc(-c2ncnn2C)c2cccc(OCc3c(Cl)cc(F)cc3[C@H](C)NC(=O)COC(F)F)c2n1 [Compound 3, (S)-N-(1-(3-chloro-5-fluoro-2-((2-methyl-4-(1-methyl-1H-1,2,4-triazol-5-yl)quinolin-8-yloxy)methyl)phenyl)ethyl)-2-(difluoromethoxy)acetamide]
inhibition at 10 µM (Urotensin UT): 13.5% | inhibition at 10 µM (Adrenergic β2): 3% | inhibition at 10 µM (PDE4D2): 4.4% | inhibition at 10 µM [1]: 8% | inhibition at 10 µM (Somatostatin sst2): -7% | effect on serotonin-induced contraction (5-HT2A receptor): Lack of antagonist effect | inhibition at 10 µM [2]: 14.5% | % Inhibition @ 10 µM [3]: 6.3% | inhibition at 10 µM (Bombesin BB1): 6.7% | inhibition at 10 µM (Neurokinin NK3): 6.1% | inhibition at 10 µM (Oxytocin): 5% | % Inhibition @ 10 µM [4]: 2.3% | inhibition at 10 µM (Acetylcholinesterase): 8.4% | inhibition at 10 µM (Dopamine D2S): -2.7% | IC50 (dog B2 receptor): ~7.6 µM | Kb (dog B2 receptor): ~2.7 µM | inhibition of binding or functional activity at most targets ([5]; 10 μM, most targets incl. bradykinin B1 and angiotensin AT1, except V1a, CRF1, EP1, TP, NK1): < 50% | agonism at V1a, CRF1, TP, NK1, NK3 ([5]; full concentration-response curves, agonist mode): no agonism | inhibition at 10 µM (Muscarinic M4): -1.3% | inhibition at 10 µM [6]: -33.6%
